From patent US12023345B2, “Compositions and methods for treating lysosomal disorders” (RUSH UNIVERSITY MEDICAL CENTER, priority 2014, dated 2024) come the findings set out here.

One assay deals with LAMP2. Nature of the assay: LAMP2 protein by Western blot and immunocytochemistry in mouse primary brain cells. Format: cell-based. The note with it: for level of LAMP2 (Western blot): different doses of aspirin. On the procedure: Immunostaining of Cells: Immunocytochemistry was performed as described earlier (29). Briefly, 8 well chamber slides containing mouse primary astrocytes, mouse neurons were cultured to 70-80% confluence were fixed with chilled Methanol (Fisher Scientific, Waltham, MA) overnight, followed by two brief rinses with filtered PBS. Samples were blocked with 2% BSA (Fisher Scientific) in PBS containing Tween 20 (Sigma) and Triton X-100 (Sigma) for 30 min and incubated at room temperature under shaking conditions for 2 hr in PBS containing the following anti-mouse primary antibodies: TFEB (1:1000; Abcam), GFAP, (1:1000; DAKO), LAMP2 (1:500, Abcam), NeuN (1:500, Millipore), and MAP2 (1:200, Millipore). […] Following four 15 minute washes with filtered PBS, cells were incubated for 4-5 min with 4′, 6-diamidino-2-phenylindole (DAPI, 1:10,000; Sigma). The samples were run in an EtOH and Xylene (Fisher) gradient, mounted, and observed under Olympus BX41 fluorescence microscope.
(§1) Immunoblotting: Western blotting was conducted as described earlier (31, 32) with modifications. Briefly, cells were scraped in 1× RIPA buffer, protein was measured using Bradford reagent and sodium dodecyl sulfate (SDS) buffer was added and electrophoresed on NuPAGE® Novex® 4-12% Bis-Tris gels (Invitrogen) and proteins transferred onto a nitrocellulose membrane (Bio-Rad) using the Thermo-Pierce Fast Semi-Dry Blotter.
The membrane was then washed for 15 min in TBS plus Tween 20 (TBST) and blocked for 1 hr in TBST containing BSA. Next, membranes were incubated overnight at 4° C. under shaking conditions with the following 1° antibodies; TFEB (1:1000, Abcam), LAMP2 (1:500, Abcam) and β-actin (1:800; Abcam, Cambridge, MA). The next day, membranes were washed in TBST for 1 hr, incubated in 2° antibodies against 1° antibody hosts (all 1:10,000; Jackson ImmunoResearch) for 1 hr at room temperature, washed for one more hour and visualized under the Odyssey® Infrared Imaging System (Li-COR, Lincoln, NE).
Background: A western blot detects proteins with antibodies after separation by electrophoresis.

For the next assay, the system named is TPP1. Nature of the assay: TPP1 protein by Western blot in primary mouse astrocytes. The class given is cell-based. How it is done: 12(A) Cells were treated with different concentrations of aspirin for 24 h under serum-free condition followed by Western blot for TPP1. 12(B) Cells were treated with 5 μM aspirin for different time periods under serum-free condition followed by Western blot for TPP1. Actin was run as a house keeping molecule. 12(C) Cells were treated with different concentrations of aspirin for 24 h under serum-free condition followed by TPP1 activity assay using cell extract containing 5 μg of total protein and Ala-Ala-Phe 7-amido-4-methylcoumarin as substrate. Results represent three independent experiments.
as §1

In the case of `CC(=O)Oc1ccccc1C(=O)O` [aspirin], the “level of LAMP2 (Western blot)” value was “not PPARα (−/−)” in the assay on LAMP2 (PPARα (−/−) astrocytes, 24 h); “dose-dependently increased the level of LAMP2” with LAMP2 (PPARβ (−/−) astrocytes, 24 h); “dose-dependently increased the level of LAMP2” in the assay with LAMP2 (WT astrocytes, 24 h). In addition, in the assay on LAMP2 (astrocytes, 5 μM aspirin, serum-free), the “LAMP2 protein expression (Western blot), time course” value is “time-dependent increase”. Also, the “LAMP2 protein expression (Western blot), dose” value with LAMP2 (astrocytes, aspirin 2 and 5 μM, 24 h) is “increase in LAMP2 protein expression”. Also, in the assay with TPP1 (5 μM aspirin), the “earliest time at which increase in TPP1 protein was evident” value is 2 h. Further, the “time of maximum increase in TPP1 protein” value in the assay on TPP1 (5 μM aspirin) worked out at 12 h. In addition, in the assay with TPP1 (aspirin 2 and 5 μM, 24 h), the “TPP1 protein (Western blot), dose” value was “increase in TPP1 protein”.
